# Test results: a melting point compilation (Tetko et al.)
row,Compound,melting point
1,C=CCOC(=O)CC(C)=O,-85 °C
2,Cc1cccc(C(=O)NCC(=O)O)c1,138 to 142 °C
3,NNC(=O)c1ccc(F)cc1F,141 to 142 °C
4,Nc1ncnc2c1ncn2CCCNC(=O)c1cc([N+](=O)[O-])cc([N+](=O)[O-])c1,234 °C
5,CCC1(C)CC(=O)NC(=O)C1,126 °C
6,OCc1ccco1,-14.6 °C
7,CCOC(=O)c1cc2c(oc1=O)-c1ccc(OC)cc1CC2,141 to 142 °C
8,O=P(Oc1ccccc1)(Oc1ccccc1)Oc1noc2ccccc12,64 to 68 °C
9,OCc1ccc(-c2ccccn2)cc1,49 to 51 °C
10,CCOP(=O)(OCC)On1nnc2ccccc2c1=O,74 °C
11,c1ccn2cccc2c1,75 °C
12,NS(=O)(=O)c1ccc(SCCO)c(F)c1,110 °C
13,CC1=C(C(=O)OC(C)C)C(c2ccc([N+](=O)[O-])cc2)NC(=S)N1 (centres undefined),75 °C
14,COc1ccc(Br)c([N+](=O)[O-])c1,31 °C
15,O=C(O)c1cccc(-n2cccc2)c1,180 to 181 °C
16,Cc1ccc(CO)cc1F,35 °C
17,C#CCOc1ccc(Cc2ccc(O)cc2)cc1,60 °C
18,CCOP(=S)(OCC)Oc1nc(Cl)n(C(C)C)n1,< 25 °C
19,c1ccc(-c2ccc(-c3nnc(-c4ccccc4)o3)cc2)cc1,168 to 172 °C
20,C=C1C2CCC3C(CCC4C5(C)CCCC43C3OCCN3C5)(C2)C1O (centres undefined),120 °C
21,COc1ccc(Cl)c(OC)c1C(N)=O,156 to 158 °C
22,CCOc1ccc(C(C)O)cc1 (centres undefined),47 °C
23,COc1cc(CCl)cc(OC)c1,46 to 48 °C
24,COc1cc(NC(=S)NN)cc(OC)c1OC,178 to 179 °C
25,N#CC1=C(N)Oc2c(c(C(F)(F)F)nn2-c2ccccc2)C1c1c(Cl)cc(Cl)cc1Cl (centres undefined),207 °C

row,Compound,melting point
1,O=[N+]([O-])c1ccc(-c2nnc3n2CN(c2ccc([N+](=O)[O-])cc2)CS3)cc1,320 °C
2,CCCCCCCCCCCCCC1CCCCC1,18.5 °C
3,COc1ccc(C(O)(c2ccccc2OC)c2ccc(OC)cc2OC)c(OC)c1,137 °C
4,CC1=CC2(C)C3C(=O)OC(=O)C3C1C1C(=O)OC(=O)C12 (centres undefined),268 to 270 °C
5,O=C(O)c1csnn1,233 to 235 °C
6,CN(N)C(=O)c1ccccc1N,69 to 71 °C
7,Nc1ncc([N+](=O)[O-])cc1Br,214 to 218 °C
8,CC12CCC(CC/C1=N\O)C2(C)C (centres undefined),164 °C
9,Cc1nnc2sc(SCc3ccc(Cl)cc3)nn2c1=O,171 to 172 °C
10,Cc1nc(-c2ccccc2)sc1C=O,111 to 113 °C
11,CC(C)C(Nc1ccc(C(F)(F)F)cc1Cl)C(=O)OC(C#N)c1cccc(Oc2ccccc2)c1 (centres undefined),25 °C
12,COc1cc(OC)nc(NC(=O)NS(=O)(=O)c2cc(NC=O)ccc2C(=O)N(C)C)n1,194 °C
13,O=C(NCCNC(=O)c1ccccc1)c1ccccc1,244 °C
14,CCOC1=NN(c2ccc([N+](=O)[O-])cc2)C(=O)C1,142 °C
15,c1ccc(-c2cc3cc4cc(-c5ccccc5)[nH]c4cc3[nH]2)cc1,> 270 °C
16,O=C1OC(/C=C/c2ccc([N+](=O)[O-])cc2)Cc2ccccc21 (centres undefined),180 to 182 °C
17,Cc1cc(O)c(C)c(C)c1C,85.3 °C
18,COC(=O)c1cccc(Cn2nc(C)c(Br)c2C)c1,105 to 107 °C
19,FC(F)(F)c1ccccc1CBr,34 to 35 °C
20,OCc1ccc(N2CCCCC2)nc1,70 to 71 °C
21,OCC1OC(O)CC(O)C1O (centres undefined),150 °C
22,CC(C)C(C(=O)O)C(=O)O,90 to 93 °C
23,CNc1ccc2oc(CC3OC4(CCC3C)OC(C(C)C(=O)c3ccc[nH]3)C(C)CC4C)nc2c1C(=O)O (centres undefined),182 °C
24,NCCNCCNCCNCCN,-30 °C
